Values quoted from earlier work, collected in US8470377B2, “Composition and method for reducing food intake” (Natures Remedies Ltd., priority 2009, dated 2013).

Legend:
[1] = for food intake and appetite ratings: literature studies
[2] = tested on: GLP-1; conditions: approximately 20 g per day for 7 days, human volunteers

Row | Compound | food intake and appetite ratings [1] | also measured
1 | O=C(O)CC(O)(C(=O)O)C(O)C(=O)O (centres unmarked) [HCA-SX, hydroxycitric acid] |  | decrease in food intake ([1]; human studies): 4%
2 | beta-glucan | not significantly reduced | 
3 | fructooligosaccharides | not significantly reduced | 
4 | methylcellulose | not significantly reduced | 
5 | oligofructose |  | reduction in total intake ([1]; human studies): 5%; serum GLP-1 levels [2]: increased
6 | pectin | not significantly reduced | 
7 | sodium alginate |  | reduction in energy intake ([1]; human studies): 7%
